Where two headings read alike, the source gives them in different places.

The test system of one assay is HIV. The experiment in a line: Inhibition of HIV Replication (NL4-3), extracellular p24 in HuT-78 cells. It counts as cell-based. As for the experimental part:
HuT-78 cells are seeded into 96 well microtitre plates at 50,000 cells per […] per well in RF-10 containing 2 μg/mL polybrene (RF-10/2). Compounds are prepared to 4× final concentration in RF-10/2, and […] added to cells. Virus (40 μL in RF-10/2 containing 1600 pfu) is added to each well or […] RF-10/2 for negative controls and for assaying compound cytotoxicity. After 24 hrs, an additional 90 μL of media or media containing 1× compound is added to each well. At 4 days post infection, 100 μL of media is removed from each well and replaced with 100 μl of fresh media with or without compound. Forty eight hours later supernatants are harvested and levels of extracellular p24 determined. Supernatants are diluted 1 in 10,000 and p24 levels assayed using the Vironostika p24 assay kit. EC50 is calculated as the concentration required to inhibit HIV p24 production to 50% that of no drug controls.
In the tables below, this assay type is referred to as NL4-3.

Another assay relates to HIV-1. The experiment in a line: Luciferase Assay with single-round reporter virus (NLXLuc or HIV-Luc). It counts as cell-based. The text has this: Infectivity assays using reporter viruses derived from lentiviral vectors capable of a single round of infection were used to determine the activity (EC50) of compounds. The DNA used to generate viruses for infection was the full-length HIV-1 genome which had been envelope-deleted. In addition, a reporter gene (the firefly luciferase gene from Photinus pyralis) was cloned into the nefregion of the HIV backbone for ease of assay readout. […]. Culture supernatants containing VSV-G pseudotyped virions were harvested 64 h post transfection, clarified by centrifugation to remove cell debris, and frozen at −70° C. until use.
293FT cells were plated out at 12000 cells per well in CellView 96-well cell culture plates (Invitrogen) 16 h prior to compound addition. Compounds were preincubated with cells for 4 h at 37° C. prior to the addition of virus sufficient to generate approximately 10000 Luciferase light units (as measured by the Victor Wallace luminometer) upon assaying using the Bright-Glo™ reagent (Promega) according to the manufacturer's instructions at 48 h post infection.
In the tables below, this assay is referred to as NLXLuc or HIV-Luc.

Where [1] appears, read: Human immunodeficiency virus 1, NL43, HuT78.

A word on the EC50: it is the concentration that produces a half-maximal response. A low value points to higher potency in that assay. For the molecule `CC(=O)N(C)c1cc(N2CCOCC2)cn2c(=O)c(O)c(C(=O)NCc3ccc(F)cc3)nc12` [Example 28.3, N-(4-fluorobenzyl)-3-hydroxy-9-(N-methylacetamido)-7-morpholino-4-oxo-4H-pyrido[1,2-a]pyrimidine-2-carboxamide], the EC50 with HIV (setting [1]) is 1 to 10 nM; in the assay on HIV-1 (Human immunodeficiency virus 1), 20 to 100 nM.
In turn, `Cc1ccc2nc(C(=O)NCc3ccc(Cl)c(Cl)c3)c(O)c(=O)n2c1` [drawing 189, reference compound] had an EC50 with HIV (setting [1]) of 100 to 1000 nM.
The same measure, in the same setting: next, `Cc1ccc2nc(C(=O)NCc3ccc(F)cc3)c(O)c(=O)n2c1` [drawing 183, reference compound]: 100 to 1000 nM.
Still for that read-out and setting: next, `O=C(NCc1ccc(F)cc1)c1nc2ccc(Br)cn2c(=O)c1O` [reference compound]: 100 to 1000 nM.
Turning to `O=C(NCc1ccc(F)cc1)c1nc2c(N3CCCS3(=O)=O)cc(N3CCOCC3)cn2c(=O)c1O` [Example 24.4, N-(4-fluorobenzyl)-9-(1,3-propanesultam)-3-hydroxy-7-morpholino-4-oxo-4H-pyrido[1,2-a]pyrimidine-2-carboxamide], the EC50 in the assay on HIV (setting [1]) was under 1 nM; with HIV-1 (Human immunodeficiency virus 1), 10 to 20 nM.
`O=C(NCc1ccc(Cl)c(Cl)c1)c1nc2c(N3CCOCC3)cc(N3CCOCC3)cn2c(=O)c1O` [Example 22, N-(3,4-dichlorobenzyl)-3-hydroxy-7,9-dimorpholino-4-oxo-4H-pyrido[1,2-a]pyrimidine-2-carboxamide] returned an EC50 in the assay with HIV (setting [1]) of 1 to 10 nM.
For the molecule `CCOC(=O)NC1=CC(N2CCOCC2)=CN2C(=O)C(O)C(C(=O)NCc3ccc(F)cc3)=NC12` (centres unmarked) [Example 23.4, ethyl 2-(4-fluorobenzylcarbamoyl)-3-hydroxy-7-morpholino-4-oxo-4,9a-dihydro-3H-pyrido[1,2-a]pyrimidin-9-yl carbamate], the EC50 in the assay on HIV was in the range of 1 to 10 nM.
`O=C(NCc1ccc(Cl)c(Cl)c1)c1nc2c(N3CCCS3(=O)=O)cc(N3CCOCC3)cn2c(=O)c1O` [Example 25, N-(3,4-dichlorobenzyl)-9-(1,3-propanesultam)-3-hydroxy-7-morpholino-4-oxo-4H-pyrido[1,2-a]pyrimidine-2-carboxamide]: the EC50 with HIV (setting [1]) is under 1 nM; with HIV-1 (Human immunodeficiency virus 1, HEK-293T), under 1 nM.
With `CC(=O)Nc1cc(N2CCOCC2)cn2c(=O)c(O)c(C(=O)NCc3ccc(F)cc3)nc12` [Example 26.5, 9-acetamido-N-(4-fluorobenzyl)-3-hydroxy-7-morpholino-4-oxo-4H-pyrido[1,2-a]pyrimidine-2-carboxamide], the EC50 with HIV (setting [1]) was in the range of 20 to 100 nM.
In the assay with HIV-1 (Human immunodeficiency virus 1), `O=C(NCc1ccc(F)cc1)c1nc2c(N3CCOCC3)cc(N3CCOCC3)cn2c(=O)c1O` [Example 21.5, N-(4-fluorobenzyl)-3-hydroxy-7,9-dimorpholino-4-oxo-4H-pyrido[1,2-a]pyrimidine-2-carboxamide] yielded an EC50 of 100 to 1000 nM.
The molecule `CN1CCN(c2cc(N3CCOC3=O)c3nc(C(=O)NCc4ccc(F)cc4)c(O)c(=O)n3c2)CC1` [Example 20.4, 3-Hydroxy-7-(4-methyl-piperazin-1-yl)-4-oxo-9-(2-oxo-oxazolidin-3-yl)-4H-pyrido[1,2-a]pyrimidine-2-carboxylic acid 4-fluoro-benzylamide] had an EC50 in the assay with HIV-1 (Human immunodeficiency virus 1) of 20 to 100 nM.
The molecule `CC(C)N1CCN(c2cc(N3CCN(C)C3=O)c3nc(C(=O)NCc4ccc(F)cc4)c(O)c(=O)n3c2)CC1` [Example 32.4, 3-Hydroxy-7-(4-isopropyl-piperazin-1-yl)-9-(3-methyl-2-oxo-imidazolidin-1-yl)-4-oxo-4H-pyrido[1,2-a]pyrimidine-2-carboxylic acid 4-fluoro-benzylamide] registered an EC50 with HIV-1 (Human immunodeficiency virus 1) of 10 to 20 nM.
As to `CN1CCN(c2cc(N3CCCC3=O)c3nc(C(=O)NCc4ccc(F)cc4)c(O)c(=O)n3c2)CC1` [Example 2.4, 3-Hydroxy-7-(4-methyl-piperazin-1-yl)-4-oxo-9-(2-oxo-pyrrolidin-1-yl)-4H-pyrido[1,2-a]pyrimidine-2-carboxylic acid 4-fluoro-benzylamide], in the assay on HIV-1 (Human immunodeficiency virus 1), the EC50 lay in the range of 100 to 1000 nM.
On the same count and under the same terms, next, `CC1COCCN1c1cc(N2CCNCC2=O)c2nc(C(=O)NCc3ccc(F)cc3)c(O)c(=O)n2c1` (centres unmarked) [Example 11.3, N-(4-fluorobenzyl)-3-hydroxy-7-(3-methylmorpholino)-4-oxo-9-(2-oxopiperazin-1-yl)-4H-pyrido[1,2-a]pyrimidine-2-carboxamide]: 100 to 1000 nM.

The record behind these values is patent US20130178469A1, “NOVEL ANTIVIRAL AGENTS” (SHANGHAI INSTITUTE OF ORGANIC CHEMISTRY (SIOC), priority 2010, published 2013).
